Measured values as given in ChEMBL document CHEMBL4811279, “N-Substituted pyrrolopyrimidines and purines as p90 ribosomal S6 protein kinase-2 (RSK2) inhibitors” (Bioorg Med Chem, 2021).

Target: Ribosomal protein S6 kinase alpha-3 (Homo sapiens) (UniProt P51812)
Experiment: Inhibition of RSK2 (unknown origin) using Ulight-rpS6 as substrate at 10 uM incubated for 1 hr in presence of ATP by TR FRET assay

Ribosomal protein S6 kinase alpha-3 (Homo sapiens), sequence (P51812 whole entry): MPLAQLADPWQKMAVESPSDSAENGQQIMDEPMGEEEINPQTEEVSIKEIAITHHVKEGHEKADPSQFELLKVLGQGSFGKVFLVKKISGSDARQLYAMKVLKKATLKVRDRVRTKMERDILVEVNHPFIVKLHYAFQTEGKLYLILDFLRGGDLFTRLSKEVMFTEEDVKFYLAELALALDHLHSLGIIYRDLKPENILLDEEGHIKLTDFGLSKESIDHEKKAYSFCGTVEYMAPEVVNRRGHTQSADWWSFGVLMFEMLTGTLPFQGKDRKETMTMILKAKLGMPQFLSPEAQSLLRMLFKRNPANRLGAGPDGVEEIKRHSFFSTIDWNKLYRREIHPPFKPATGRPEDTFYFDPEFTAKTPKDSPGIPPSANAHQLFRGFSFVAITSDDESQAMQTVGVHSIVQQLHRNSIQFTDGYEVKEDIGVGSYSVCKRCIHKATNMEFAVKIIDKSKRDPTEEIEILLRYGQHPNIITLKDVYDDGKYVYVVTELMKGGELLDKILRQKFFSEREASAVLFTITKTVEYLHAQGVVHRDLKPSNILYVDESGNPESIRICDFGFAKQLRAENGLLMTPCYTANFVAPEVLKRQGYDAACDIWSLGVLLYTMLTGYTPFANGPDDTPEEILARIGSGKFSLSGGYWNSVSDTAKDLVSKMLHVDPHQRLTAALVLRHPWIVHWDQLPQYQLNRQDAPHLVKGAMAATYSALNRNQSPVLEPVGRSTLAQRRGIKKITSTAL

inhibition [%] | SMILES
42 | Oc1c(F)cc(Nc2ncc3ncn(-c4ccc(OCc5ccccc5)cc4)c3n2)cc1F
67 | Oc1c(F)cc(Nc2ncc3nc[nH]c3n2)cc1F
49 | Oc1c(F)cc(Nc2ncc3ncn(-c4ccc(-c5ccccc5)cc4)c3n2)cc1F
77 | Oc1c(F)cc(Nc2ncc3cc[nH]c3n2)cc1F
63 | Oc1c(F)cc(Nc2ncc3ncn(-c4cccc(OCc5ccccc5)c4)c3n2)cc1F
